Consider one substance from patent US20200179296A1, “Accelerated Clearance of Biologic Therapeutics Using Click-Antidotes” (The Regents of the University of Colorado, a body corporate, priority 2018, published 2020).

The nature of data set [1]: Size and zeta potential of the antidotes (Zetasizer Nano ZS), particle concentration. Type of data set: physicochemical. An excerpt: Synthesis of CLIO and CLIO NWs: CLIO NWs were synthesized from native 20 kDa dextran (Sigma) whereas CLIO were synthesized from reduced T-10 (10 k Da) dextran (Pharmacosmos). Dextran, Fe (III) chloride and Fe (II) chloride were mixed in DDW and titrated with ammonia using a modified Molday precipitation method. The ratio between dextran and iron salts determined the final size of the nanoparticles. Excess dextran was removed with ultrafiltration and the particles were crosslinked with epichlorohydrin as described. Excess epichlorohydrin was removed with ultrafiltration and particles were aminated by addition of ammonium hydroxide (CLIO NWs) or diaminohexane (CLIO) overnight at 4° C. […] Size and zeta potential were determined using Zetasizer Nano ZS (Malvern Instruments Ltd, Malvern, UK). […] The amino group content was determined by reaction with Cy7-NHS. […] The amount of the reacted dye was determined by the difference in the supernatant fluorescence between the reaction tube and control tube (no particles). The number of amines per nanoparticle was determined to be ˜100,000 per CLIO and CLIO NW.
BSA-TCO size and zeta potential are similar to those of native BSA values reported in literature. Particle concentration of BSA was determined based on Mw of 67 kDa; CLIO and CLIONW concentration was determined as described before. […]

Data set [2] can be described thus: Elimination profile and organ distribution of NIR-labeled antidotes after i.v. injection. The data set is classed as in vivo. The settings on record: female BALB/c mice. An excerpt:
FIGS. 1A-1F show the antidotes used in the study. […] The nanocarriers were modified with click groups (DSPE-PEG3400 with MTZ, BSA with TCO, CLIO NW and CLIO with TCO) as described in Methods. […] Crosslinked dextran shell is not visible. Size bar=50 nm. FIGS. 1C-1F show the elimination profile of the antidotes and organ distribution (NIR images). Labels are as follows: k-kidney, s-spleen, Iv-liver, i-intestine, lu-lung, h-heart). DSPE-PEG-MTZ, BSA-TCO and CLIO NW-TCO are long circulating particles, whereas CLIO-TCO are short circulating particles. […] N=3 mice per group.
Female BALB/c mice 6-8 weeks old were used for the experiments and bred in house. In order to determine circulation half-life of NIR-labeled antibodies and antidotes, 2 μL blood were collected at different time points through retroorbital vein or mandibular vein and were applied in duplicates on a 0.22 μm nitrocellulose membrane and scanned at 800 nm using Li-COR Odyssey. The spot integrated density of a 16-bit TIFF image was measured with ImageJ and plotted as a function of time. The fluorescence of dots at initial time point was used as 100%. […] Mean fluorescence was determined from 16-bit images using ImageJ software by subtracting the background, drawing a ROI around the organs, and using a measure function to determine mean gray value. […]

Data set [3] relates to IRDye 800CW-labeled IgG. Kind of data set: In vivo depletion of blood IgG by click-modified antidotes. Details: species or system BALB/c mice. How it is done:
Blood IgG levels were measured at different time points, up to 72 h post injection. […] Black line is “IgG only”, green line is “IgG+antidote”. Time of IgG injection is “0” on the X-axis. The antidotes were injected at different times after IgG injection as marked by red arrows. First blood draw was at 1 h post-IgG injection (100%). The IgG only (control) group was included in every experiment. […] Two tailed t-test, n=3 mice per group.
Female BALB/c mice 6-8 weeks old were used for the experiments and bred in house. In order to determine circulation half-life of NIR-labeled antibodies and antidotes, 2 μL blood were collected at different time points through retroorbital vein or mandibular vein and were applied in duplicates on a 0.22 μm nitrocellulose membrane and scanned at 800 nm using Li-COR Odyssey. The spot integrated density of a 16-bit TIFF image was measured with ImageJ and plotted as a function of time. The fluorescence of dots at initial time point was used as 100%. For organ distribution, mice were euthanized at 48-72 h post injection and the organs were placed in wells on a 12-well plate. Organs were scanned with Li-COR Odyssey at 800 nm. Mean fluorescence was determined from 16-bit images using ImageJ software by subtracting the background, drawing a ROI around the organs, and using a measure function to determine mean gray value.
In order to test the depletion efficiency of the antidotes, female BALB/c mice were injected with 25 μg IRDye 800CW-labeled IgG followed by PBS (control) or the antidote, and the levels of IgG in blood (both antidote-bound and free) were measured at different times post-IgG injection (FIG. 2A). […] To test the ability of DSPE-PEG-MTZ to decrease total blood levels of IgG (both antidote bound and free), mice were injected with IRDye 800CW-IgG-TCO followed 1.5 h later with the lipid (1 mg, 1660-fold molar excess of MTZ groups). […] To test the depletion efficiency of BSA-TCO, we injected mice with 25 μg of IgG-MTZ followed by BSA-TCO at 2 h and 3 h post-IgG injection (500 μg each; ˜400 fold excess of TCO; 92-fold excess of surface-binding capacity). […] In view of the large excess of the injected lipid and BSA over IgG, it is unlikely that insufficient binding capacity is responsible for the observed difference in the depletion efficiency of these antidotes. To further investigate which factors contribute to the depletion efficiency, CLIO-TCO and CLIO NW-TCO were compared that have similar sizes but different blood half-lives (FIGS. 2E, 2F). […] It was also confirmed that CLIO-TCO specifically binds to IgG via click chemistry (FIG. 11B), which confirms that the observed decrease in IgG blood fluorescence was due to depletion.

The test system of data set [4] is IRDye 800CW-labeled IgG. Put plainly: Organ distribution of IgG fluorescence in control and antidote-injected groups. Type of data set: in vivo, BALB/c mice. The settings on record: 48-72 h after antidote injection. An excerpt:
Graphs show mean gray value of fluorescence scans, images show colored images in 800 nm channel. Organs were scanned in […]; each organ's image corresponds to the bar graph below; representative images are shown. The signal represents both circulating IgG and organ-deposited IgG. Brightness and contrast were adjusted to the same extent in control and treated groups of the same experiment. Due to scanner settings, antibody batch and time when the experiment was terminated, the grey values show differences between experiments. 2-way ANOVA test with multiple comparisons, n=3 mice per group. Means and SD of experimental replicates are shown
Female BALB/c mice 6-8 weeks old were used for the experiments and bred in house. […] The spot integrated density of a 16-bit TIFF image was measured with ImageJ and plotted as a function of time. The fluorescence of dots at initial time point was used as 100%. […] Mean fluorescence was determined from 16-bit images using ImageJ software by subtracting the background, drawing a ROI around the organs, and using a measure function to determine mean gray value.
To study the depletion in the peripheral organs, the main organs were scanned 48-72 h after the antidote injection with Li-COR Odyssey NIR scanner. The mean fluorescence reflects both the deposited IgG and the circulating IgG (either free or antidote-bound). […]

For the substance “BSA-TCO: bovine serum albumin conjugated with TCO-PEG4-NHS ester; macromolecule-based click antidote”, the Particles per mg in data set [1] (BSA based on Mw of 67 kDa) was 9 × 10^12 per mg. Besides, the Diameter in data set [1] (hydrodynamic diameter, intensity-weighted distribution) is listed as 8 nm. Further, the “Organ accumulation of the antidote” value in data set [2] (NIR organ images) was “significant accumulation in the lungs”. In addition, the “Elimination half-life (slow phase)” value in data set [2] (i.v., blood) is 4 h. Further, the “Decrease in blood level of IgG at 3 h post-IgG injection vs control” value in the data set with IRDye 800CW-labeled IgG [3] (25 μg IgG-MTZ, BSA-TCO 500 μg at 2 h and 3 h, CLIO-TCO 290 μg at 1 h) turned out to be 40%. In addition, the “Decrease in blood level of IgG at 24 h post IgG injection vs control” value in the data set with IRDye 800CW-labeled IgG [3] (25 μg IgG, DSPE-PEG-MTZ 1 mg, BSA-TCO 2 x 500 μg, CLIO-TCO 290 μg) came out at 53%. Besides, the “Decrease in AUC24 h of blood IgG vs control, 3 injections of antidote” value in the data set on IRDye 800CW-labeled IgG [3] (BSA-TCO 500 μg at 1.5, 3, 23 h, CLIO-TCO 150 μg at 2, 3, 4 h post-IgG) was 38%. Moreover, the “Decrease in AUC24 h of blood IgG vs control” value in the data set on IRDye 800CW-labeled IgG [3] (DSPE-PEG-MTZ 1 injection 1 mg, BSA-TCO 2 injections 500 μg each, CLIO-TCO 1 injection 290 μg) was found to be 41%. Moreover, the “Effect on IgG fluorescence in the liver” value in the data set with IRDye 800CW-labeled IgG [4] was “increased the liver fluorescence”. In addition, in the data set on IRDye 800CW-labeled IgG [4] (Li-COR 800 nm), the “Effect on IgG fluorescence in the organs” value is given as “did not decrease the level of fluorescence in other organs”.
